Results on 1 compound are retold here after patent US20110275692A1, “SUBSTITUTED GAMMA LACTAMS AS THERAPEUTIC AGENTS” (ALLERGAN, INC., priority 2005, published 2011).

One assay addresses T1, hEP2/Gqs5 (Homo sapiens, UniProt P43116).
T1 construct: expressed in transfected cells; host or cells: HEK-293(EBNA)
Briefly: EP2 FLIPR calcium signal. The class given is cell-based. Conditions: HEK-293(EBNA) cells. The procedure: (§1) HEK-293(EBNA) cells, stably expressing one type or subtype of recombinant human prostaglandin receptors (prostaglandin receptors expressed: hDP/Gqs5; hEP1; hEP2/Gqs5; hEP3A/Gqi5; hER4/Gqs5; hFP; hIP; hTP), were cultured in 100 mm culture dishes in high-glucose DMEM medium containing 10% fetal bovine serum, 2 mM 1-glutamine, 250 μg/ml geneticin (G418) and 200 μg/ml hygromycin B as selection markers, and 100 units/ml penicillin G, 100 μg/ml streptomycin and 0.25 μg/ml amphotericin B.
(§2) Cells were seeded at a density of 5×10^4 cells per well in Biocoat® Poly-D-lysine-coated black-wall, clear-bottom 96-well plates (Becton-Dickinson) and allowed to attach overnight in an incubator at 37° C. Cells were then washed two times with HBSS-HEPES buffer (Hanks Balanced Salt Solution without bicarbonate and phenol red, 20 mM HEPES, pH 7.4) using a Denley Cellwash plate washer (Labsystems). […]
(§3) Cells were excited with an Argon laser at 488 nm, and emission was measured through a 510-570 nm bandwidth emission filter (FLIPR™, Molecular Devices, Sunnyvale, Calif.). […] The peak increase in fluorescence intensity was recorded for each well. […] The peak fluorescence change in each drug-containing well was then expressed relative to the controls. […]

Assay [1] addresses T2, EP2 (Homo sapiens, UniProt P43116). Kind of assay: EP2 cAMP. The assay is classed as cell-based.
For another assay, the target named is T3, EP4 receptors (Homo sapiens, UniProt P35408).
T3 construct: expressed in transfected cells; host or cells: HEK-293
Briefly: EP4 radioligand binding ([3H]PGE2). How it is done: HEK-293 cells stably expressing the human or feline FP receptor, or EP1, EP2, or EP4 receptors were washed with TME buffer, scraped from the bottom of the flasks, and homogenized for 30 sec using a Brinkman PT 10/35 polytron. TME buffer was added to achieve a final 40 ml volume in the centrifuge tubes (the composition of TME is 100 mM TRIS base, 20 mM MgCl2, […]; 10N HCl is added to achieve a pH of 7.4).
The cell homogenate was centrifuged at 19000 r.p.m. for 20 min at 4° C. using a Beckman Ti-60 rotor. The resultant pellet was resuspended in TME buffer to give a final 1 mg/ml protein concentration, as determined by Biorad assay. Radioligand binding competition assays vs. [^3H-]17-phenyl PGF2α (5 nM) were performed in a 100 μl volume for 60 min. Binding reactions were started by adding plasma membrane fraction. The reaction was terminated by the addition of 4 ml ice-cold TRIS-HCl buffer and rapid filtration through glass fiber GF/B filters using a Brandel cell harvester. The filters were washed 3 times with ice-cold buffer and oven dried for one hour.
[^3H-]PGE2 (specific activity 180 Ci mmol) was used as the radioligand for EP receptors. [^3H] 17-phenyl PGF2α was employed for FP receptor binding studies. […] 17-phenyl PGF2α and non-specific binding determined with 10^−5M of unlabeled PGE2, or 17-phenyl PGF2α, according to receptor subtype studied.

The target of another assay is T4, hEP3A/Gqi5 (Homo sapiens, UniProt P43115).
T4 construct: expressed in transfected cells; host or cells: HEK-293(EBNA)
T4 sequence (P43115 1-390): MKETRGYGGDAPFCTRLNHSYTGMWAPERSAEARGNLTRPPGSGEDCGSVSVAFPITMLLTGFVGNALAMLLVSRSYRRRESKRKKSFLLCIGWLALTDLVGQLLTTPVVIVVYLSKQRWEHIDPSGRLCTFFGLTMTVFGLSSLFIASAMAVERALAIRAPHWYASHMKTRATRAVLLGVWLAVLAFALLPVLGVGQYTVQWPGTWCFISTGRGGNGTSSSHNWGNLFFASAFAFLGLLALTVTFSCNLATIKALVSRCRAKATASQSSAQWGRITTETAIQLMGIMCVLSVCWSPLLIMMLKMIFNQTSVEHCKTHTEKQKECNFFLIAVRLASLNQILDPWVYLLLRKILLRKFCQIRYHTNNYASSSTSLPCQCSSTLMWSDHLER
Kind of assay: Other receptors: hEP3A FLIPR. The assay is classed as cell-based. The procedure:
as §1, §2, §3

The target of assay [2] is T2, EP2. Briefly: EP2 competition binding ([3H]PGE2). On the set-up: expressed in transfected cells; host or cells: HEK 293. The settings on record: HEK 293 cells stably expressing human EP2, [3H]PGE2. The procedure: Competition binding experiments were performed in a medium containing Hank's balanced salt solution, Hepes 20 mM, pH 7.3, membranes (˜60 μg protein) or 2×10^5 cells from HEK 293 cells stably expressing human EP2 receptors, [^3H]PGE2 (10 nM) and various concentrations of test compounds in a total volume of […] Reaction mixtures were incubated at 23° C. for 60 min, and were filtered over Whatman GF/B filters under vacuum. Filters were washed three times with 5 ml ice-cold buffer containing 50 mM Tris/HCl (pH 7.3). Non-specific binding was estimated in the presence of excess unlabeled PGE2 (10 μM). Binding data fitted to the binding model for a single class of binding sites, using nonlinear regression analysis. IC50 values thus obtained were converted to Ki using the equation of Ki=(IC50/(1+[L]/KD) where [L] represents PGE2 concentration (10 nM) and KD the dissociation constant for [^3H]PGE2 at human EP2 receptors (40 nM). […]
The cell homogenate was centrifuged at 19000 r.p.m. for 20 min at 4° C. using a Beckman Ti-60 rotor. The resultant pellet was resuspended in TME buffer to give a final 1 mg/ml protein concentration, as determined by Biorad assay. […]
[^3H-]PGE2 (specific activity 180 Ci mmol) was used as the radioligand for EP receptors. […] 17-phenyl PGF2α and non-specific binding determined with 10^−5M of unlabeled PGE2, or 17-phenyl PGF2α, according to receptor subtype studied.

Bounds are passed on as bounds.

T2 sequence (P43116 whole entry): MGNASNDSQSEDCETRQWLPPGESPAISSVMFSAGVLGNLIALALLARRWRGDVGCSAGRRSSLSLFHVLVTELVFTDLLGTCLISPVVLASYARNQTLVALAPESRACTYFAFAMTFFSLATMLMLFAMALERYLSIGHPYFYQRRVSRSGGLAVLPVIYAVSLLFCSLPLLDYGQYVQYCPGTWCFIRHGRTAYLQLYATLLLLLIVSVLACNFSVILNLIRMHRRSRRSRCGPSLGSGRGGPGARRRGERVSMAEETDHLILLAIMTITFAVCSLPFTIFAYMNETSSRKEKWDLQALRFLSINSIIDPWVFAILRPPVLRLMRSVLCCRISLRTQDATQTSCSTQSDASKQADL
T3 sequence (P35408 whole entry): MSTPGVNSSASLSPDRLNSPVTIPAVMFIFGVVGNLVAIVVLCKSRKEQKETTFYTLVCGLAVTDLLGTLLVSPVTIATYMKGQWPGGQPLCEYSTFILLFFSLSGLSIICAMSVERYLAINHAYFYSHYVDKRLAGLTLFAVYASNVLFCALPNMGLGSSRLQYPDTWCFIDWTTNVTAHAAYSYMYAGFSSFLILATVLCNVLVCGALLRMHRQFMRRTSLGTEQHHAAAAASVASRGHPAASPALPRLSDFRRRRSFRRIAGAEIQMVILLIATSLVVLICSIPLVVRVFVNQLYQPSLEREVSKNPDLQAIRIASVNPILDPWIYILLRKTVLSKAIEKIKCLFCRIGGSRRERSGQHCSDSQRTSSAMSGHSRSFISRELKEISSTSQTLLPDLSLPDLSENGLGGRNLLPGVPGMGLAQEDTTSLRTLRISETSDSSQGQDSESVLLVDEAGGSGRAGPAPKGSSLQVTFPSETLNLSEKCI
T1 sequence (P43116 whole entry): as the sequence (P43116 whole entry) above

`CCCCCC(O)c1ccc(N2C(=O)CC[C@@H]2C=CCc2ccc(C(=O)O)s2)cc1` (stereo partly drawn) [Example 16, 5-((E and Z)-3-{(R)-1-[4-(1-Hydroxy-hexyl)-phenyl]-5-oxo-pyrrolidin-2-yl}-allyl)-thiophene-2-carboxylic acid]: the 50% effective concentration (EC50) (commonly the concentration giving half of the maximal effect) on hEP2/Gqs5 amounted to 226 nM; at EP2 [1], 15 nM; on hEP3A/Gqi5 it was 1410 nM. Besides, the Ki – broadly, a measure of affinity in units of concentration, obtained from inhibition or displacement – on EP4 receptors was more than 10000 nM; on EP2 [2], 1380 nM.
